This is an account of results in article PMC12120022, “Discovery and chemical optimisation of a potent, Bi-cyclic antimicrobial inhibitor of Escherichia coli PBP3” (Communications Biology, 2025).

Test [1] concerns the target T1, EcPBP3 (Escherichia coli, UniProt P0AD68).
T1 construct: For assays, selections and SPR a construct with residues 60–588 which has the N-terminal domain, but not the transmembrane helix, was used; made in house
Put plainly: Fluorescence polarisation competition assay with fluorescent Bicycle tracer (tracer 1 / BCY12820). In kind it is binding. Particulars: protein 9.4 nM sets sensitivity limit, top concentration 5 µM, read-out: Ki (nM) by fluorescence polarisation with tracer 1 (BCY12820 as tracer), Geometric mean (Lower 95% CI; Upper 95% CI, n=number of values). Here is the method: Competition fluorescence polarisation assays were run by observing the fluorescence polarisation of a fluorescent “tracer” Bicycle molecule which competes against an unlabelled peptide for binding to the EcPBP3 target. 10 µL of protein (9.4 nM) was mixed with either 5 µL of peptide or 5 µL of buffer and then the assay was initiated by the addition of 10 µL of tracer (1 nM) (final volume 25 µL), in a black 384 low bind, low volume plate (Corning). The buffer was 10 mM HEPES (Sigma), 2% (v/v) glycerol (Sigma), 300 mM NaCl (Sigma), adjusted to pH 8. The plate was incubated for 1 h at 25 °C and then read in a PHERAstar FS (BMG) using with an “FP 485 520 520” optic module (excitation 485 nm, emission 520 nm). The gain was determined immediately prior to the read on a tracer-only well.
Dotmatics (Dotmatics) workflows performing the above calculations were used to process the data. Values quoted are the geometric means of at least 2 repeats.
Background: Polarisation of emitted light reports the rotation of a fluorescent probe.

Test [2] has as its target T1, EcPBP3. In words: SPR binding assay on immobilised EcPBP3. Particulars: 37 °C, kinetic fitting, NB = no binding at 2500 nM (Tables S-4, S-5) or 5000 nM (Table 1); for Kd: read-out: Kd (nM) by SPR (geomean). Here is the method:
Surface plasmon resonance (SPR) assays were performed using EcPBP3 immobilized on CM5 sensor chips (GE Healthcare) via amine-coupling chemistry in assay buffer (10 mM HEPES pH 8.0, 200 mM NaCl, 0.05% (v/v) surfactant P20). The chip surface was activated by injection (10 μL min^–1) of 0.4 M EDC and 0.1 M NHS (in a 1:1 ratio) with a 7 min contact time. Protein was diluted to 25 μg mL^–1 in 10 mM MOPS (pH 7.0) and injected over the activated sensor chip surface to reach immobilization of 1500-2500 response units. Excess hydroxysuccinimidyl groups on the chip surface were deactivated by injection (10 μL min^–1) of 1 M ethanolamine hydrochloride pH 8.0 with a 7 min contact time. Reference flow cells were prepared as described, but without ligand (EcPBP3 protein).
Binding analysis runs were performed at 37 °C in running buffer (10 mM HEPES pH 8.0, 200 mM NaCl, 0.05% (w/v) Tween-20, 2% (v/v) DMSO). Test compounds (and control runs of buffer only) were injected in running buffer over the EcPBP3 chip and reference flow cell, at flow rate of 50 μL min^–1 for 150 s contact time and 2400 s dissociation time. Each injection was followed by a wash with 50% (v/v) DMSO. All compounds were tested in at least two independent biological replicates unless otherwise stated.
Raw sensorgrams data were solvent-corrected, reference-subtracted and blank-buffer-subtracted (double-referencing) before kinetic and affinity analysis to account for non-specific binding and injection artifacts. Equilibrium dissociation constant (Kd) values was determined using the Biacore™ Insight Evaluation Software (version 4.0.8 or version 5.0.17) using kinetic fitting. Kd values presented are the geometric mean of at least two biological replicates.
A general note: Surface plasmon resonance follows binding to a sensor surface in real time, without labels.

Where a SMILES comes first, the peptide text is derived from it.

T1 sequence (P0AD68 60-588): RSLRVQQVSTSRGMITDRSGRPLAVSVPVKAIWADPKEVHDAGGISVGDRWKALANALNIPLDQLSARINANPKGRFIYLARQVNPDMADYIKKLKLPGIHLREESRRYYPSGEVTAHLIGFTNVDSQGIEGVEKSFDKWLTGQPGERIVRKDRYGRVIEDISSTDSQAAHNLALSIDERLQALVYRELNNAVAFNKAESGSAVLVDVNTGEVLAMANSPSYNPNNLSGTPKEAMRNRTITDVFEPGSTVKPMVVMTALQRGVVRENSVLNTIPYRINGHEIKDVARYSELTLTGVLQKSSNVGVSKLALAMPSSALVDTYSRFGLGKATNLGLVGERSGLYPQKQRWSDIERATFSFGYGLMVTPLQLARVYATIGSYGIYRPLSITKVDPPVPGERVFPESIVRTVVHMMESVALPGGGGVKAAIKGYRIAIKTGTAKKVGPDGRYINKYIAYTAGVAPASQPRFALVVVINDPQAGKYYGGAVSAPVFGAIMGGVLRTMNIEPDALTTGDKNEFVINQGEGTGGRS

Consider `CC(C)C[C@@H]1NC(=O)[C@@H](NC(=O)[C@H](C)N)CSCCC(=O)N2CN3CN(C2)C(=O)CCSC[C@H](NC(=O)[C@H](CCCCNC(=N)N)NC(=O)[C@@H]2CCCN2C(=O)[C@H](Cc2ccccc2)NC1=O)C(=O)N1CCC[C@H]1C(=O)N[C@@H](Cc1c[nH]c2ccccc12)C(=O)N[C@@H](C(C)C)C(=O)N[C@@H](CCC(=O)O)C(=O)NCC(=O)N[C@H](C(=O)N[C@@H](C)C(N)=O)CSCCC3=O` [Peptide 27] (HELM PEPTIDE1{A.C.L.F.P.[N=C(N)NCCCC[C@H](N[*:1])C(=O)[*:2]].C.P.W.V.E.G.C.A.[am]}|CHEM1{[O=C(CC[*:1])N1CN(C(=O)CC[*:2])CN(C(=O)CC[*:3])C1]}$PEPTIDE1,CHEM1,2:R3-1:R1|PEPTIDE1,CHEM1,7:R3-1:R2|PEPTIDE1,CHEM1,13:R3-1:R3$$$V2.0), for which the Ki (in general, the dissociation constant of the complex between target and ligand, obtained from inhibition or displacement) at EcPBP3 [1] is below 9 nM. The Kd (in general, a measure of binding affinity in units of concentration) on EcPBP3 [2] turned out to be 3.36 nM.

On to `CC(C)[C@@H]1NC(=O)[C@H](Cc2c[nH]c3ccccc23)NC(=O)[C@@H]2CCCN2C(=O)[C@@H]2CSCCC(=O)N3CN(CN(C3)C(=O)CCSC[C@H](NC(=O)[C@H](C)N)C(=O)N[C@@H](CO)C(=O)N[C@@H](Cc3ccccc3)C(=O)N3CCC[C@H]3C(=O)N[C@@H](C)C(=O)N2)C(=O)CCSC[C@@H](C(=O)N[C@@H](C)C(N)=O)NC(=O)CNC(=O)[C@H](CCC(=O)O)NC1=O` [Peptide 19], for which the Ki on EcPBP3 [1] was below 9 nM. Also, on EcPBP3 [2], the Kd stood at 12.4 nM.

With `CC(C)[C@@H]1NC(=O)[C@H](Cc2c[nH]c3ccccc23)NC(=O)[C@@H]2CCCN2C(=O)[C@@H]2CSCCC(=O)N3CN(CN(C3)C(=O)CCSC[C@@H](C(=O)N[C@@H](C)C(N)=O)NC(=O)[C@H](Cc3ccc(O)cc3)NC(=O)[C@H](CCC(=O)O)NC1=O)C(=O)CCSC[C@H](NC(=O)[C@H](C)N)C(=O)N[C@@H](CO)C(=O)N[C@@H](Cc1ccccc1)C(=O)N1CCC[C@H]1C(=O)N[C@@H](CCCCNC(=N)N)C(=O)N2` [Peptide 51] (HELM PEPTIDE1{A.C.S.F.P.[N=C(N)NCCCC[C@H](N[*:1])C(=O)[*:2]].C.P.W.V.E.Y.C.A.[am]}|CHEM1{[O=C(CC[*:1])N1CN(C(=O)CC[*:2])CN(C(=O)CC[*:3])C1]}$PEPTIDE1,CHEM1,2:R3-1:R1|PEPTIDE1,CHEM1,7:R3-1:R2|PEPTIDE1,CHEM1,13:R3-1:R3$$$V2.0), the Ki on EcPBP3 [1] is below 9 nM. The Kd at EcPBP3 [2] was 1.83 nM.

`CC(C)[C@@H]1NC(=O)[C@H](Cc2c[nH]c3ccccc23)NC(=O)[C@@H]2CCCN2C(=O)[C@@H]2CSCCC(=O)N3CN(CN(C3)C(=O)CCSC[C@H](NC(=O)[C@H](C)N)C(=O)N[C@@H](CO)C(=O)N[C@@H](Cc3ccccc3)C(=O)N3CCC[C@H]3C(=O)N[C@@H](CCCCN)C(=O)N2)C(=O)CCSC[C@@H](C(=O)N[C@@H](C)C(N)=O)NC(=O)CNC(=O)[C@H](C)NC1=O` [Peptide 23]: the Ki at EcPBP3 [1] was 9.08 nM. Besides, the Kd on EcPBP3 [2] is 6.71 nM.

On to `CC(C)[C@@H]1NC(=O)[C@H](Cc2c[nH]c3ccccc23)NC(=O)[C@@H]2CCCN2C(=O)[C@@H]2CSCCC(=O)N3CN(CN(C3)C(=O)CCSC[C@H](NC(=O)[C@H](C)N)C(=O)N[C@@H](C)C(=O)N[C@@H](Cc3ccccc3)C(=O)N3CCC[C@H]3C(=O)N[C@@H](CCCCN)C(=O)N2)C(=O)CCSC[C@@H](C(=O)N[C@@H](C)C(N)=O)NC(=O)CNC(=O)[C@H](CCC(=O)O)NC1=O` [Peptide 16] (HELM PEPTIDE1{A.C.A.F.P.K.C.P.W.V.E.G.C.A.[am]}|CHEM1{[O=C(CC[*:1])N1CN(C(=O)CC[*:2])CN(C(=O)CC[*:3])C1]}$PEPTIDE1,CHEM1,2:R3-1:R1|PEPTIDE1,CHEM1,7:R3-1:R2|PEPTIDE1,CHEM1,13:R3-1:R3$$$V2.0), for which the Ki on EcPBP3 [1] is below 9 nM. Also, at EcPBP3 [2], the Kd was found to be 6.44 nM.

With `CC(C)[C@@H]1NC(=O)[C@H](Cc2c[nH]c3ccccc23)NC(=O)[C@@H]2CCCN2C(=O)[C@@H]2CSCCC(=O)N3CN(CN(C3)C(=O)CCSC[C@H](NC(=O)[C@H](C)N)C(=O)N[C@@H](CO)C(=O)N[C@@H](Cc3ccccc3)C(=O)N[C@@H](C)C(=O)N[C@@H](CCCCN)C(=O)N2)C(=O)CCSC[C@@H](C(=O)N[C@@H](C)C(N)=O)NC(=O)CNC(=O)[C@H](CCC(=O)O)NC1=O` [Peptide 18], at EcPBP3 [1], the Ki turned out to be 76.9 nM. The Kd on EcPBP3 [2] stood at 178 nM.

`CC(C)[C@@H]1NC(=O)[C@H](Cc2c[nH]c3ccccc23)NC(=O)[C@@H]2CCCN2C(=O)[C@@H]2CSCCC(=O)N3CN(CN(C3)C(=O)CCSC[C@H](NC(=O)[C@H](C)N)C(=O)N[C@@H](Cc3ccccc3)C(=O)N[C@@H](Cc3ccccc3)C(=O)N3CCC[C@H]3C(=O)N[C@@H](CCCCNC(=N)N)C(=O)N2)C(=O)CCSC[C@@H](C(=O)N[C@@H](C)C(N)=O)NC(=O)CNC(=O)[C@H](CCC(=O)O)NC1=O` [Peptide 28] (HELM PEPTIDE1{A.C.F.F.P.[N=C(N)NCCCC[C@H](N[*:1])C(=O)[*:2]].C.P.W.V.E.G.C.A.[am]}|CHEM1{[O=C(CC[*:1])N1CN(C(=O)CC[*:2])CN(C(=O)CC[*:3])C1]}$PEPTIDE1,CHEM1,2:R3-1:R1|PEPTIDE1,CHEM1,7:R3-1:R2|PEPTIDE1,CHEM1,13:R3-1:R3$$$V2.0): the Ki at EcPBP3 [1] is below 9 nM. In addition, the Kd at EcPBP3 [2] was found to be 1.12 nM.

As for `CC(C)[C@@H]1NC(=O)[C@H](C)NC(=O)[C@@H]2CCCN2C(=O)[C@@H]2CSCCC(=O)N3CN(CN(C3)C(=O)CCSC[C@H](NC(=O)[C@H](C)N)C(=O)N[C@@H](CO)C(=O)N[C@@H](Cc3ccccc3)C(=O)N3CCC[C@H]3C(=O)N[C@@H](CCCCN)C(=O)N2)C(=O)CCSC[C@@H](C(=O)N[C@@H](C)C(N)=O)NC(=O)CNC(=O)[C@H](CCC(=O)O)NC1=O` [Peptide 21] (HELM PEPTIDE1{A.C.S.F.P.K.C.P.A.V.E.G.C.A.[am]}|CHEM1{[O=C(CC[*:1])N1CN(C(=O)CC[*:2])CN(C(=O)CC[*:3])C1]}$PEPTIDE1,CHEM1,2:R3-1:R1|PEPTIDE1,CHEM1,7:R3-1:R2|PEPTIDE1,CHEM1,13:R3-1:R3$$$V2.0), the Ki on EcPBP3 [1] is above 5000 nM. Moreover, at EcPBP3 [2], the Kd is above 2500 nM.

As to `CC(C)[C@@H]1NC(=O)[C@H](Cc2c[nH]c3ccccc23)NC(=O)[C@@H]2CCCN2C(=O)[C@@H]2CSCCC(=O)N3CN(CN(C3)C(=O)CCSC[C@H](NC(=O)[C@H](C)N)C(=O)N[C@@H](CO)C(=O)N[C@@H](Cc3ccccc3)C(=O)N3CCC[C@H]3C(=O)N[C@@H](CCCCNC(=N)N)C(=O)N2)C(=O)CCSC[C@@H](C(=O)N[C@@H](C)C(N)=O)NC(=O)CNC(=O)[C@H](CCC(=O)O)NC1=O` [Peptide 25], the Ki on EcPBP3 [1] was below 9 nM. Also, at EcPBP3 [2], the “Kd (nM) by SPR (geomean)” value is “no loss in binding or MIC” and the Kd came out at 2.85 nM.

As for `C[C@H](N)C(=O)N[C@H]1CSCCC(=O)N2CN3CN(C2)C(=O)CCSC[C@H](NC(=O)[C@H](CCCCN)NC(=O)[C@@H]2CCCN2C(=O)[C@H](Cc2ccccc2)NC(=O)[C@H](CO)NC1=O)C(=O)N1CCC[C@H]1C(=O)N[C@@H](Cc1c[nH]c2ccccc12)C(=O)N[C@@H](C)C(=O)N[C@@H](CCC(=O)O)C(=O)NCC(=O)N[C@H](C(=O)N[C@@H](C)C(N)=O)CSCCC3=O` [Peptide 22] (HELM PEPTIDE1{A.C.S.F.P.K.C.P.W.A.E.G.C.A.[am]}|CHEM1{[O=C(CC[*:1])N1CN(C(=O)CC[*:2])CN(C(=O)CC[*:3])C1]}$PEPTIDE1,CHEM1,2:R3-1:R1|PEPTIDE1,CHEM1,7:R3-1:R2|PEPTIDE1,CHEM1,13:R3-1:R3$$$V2.0), on EcPBP3 [1], the Ki was above 5000 nM. The Kd on EcPBP3 [2] came to 669 nM.

Consider `CC(C)[C@@H]1NC(=O)[C@H](Cc2c[nH]c3ccccc23)NC(=O)[C@@H]2CCCN2C(=O)[C@@H]2CSCCC(=O)N3CN(CN(C3)C(=O)CCSC[C@@H](C(=O)N[C@@H](C)C(N)=O)NC(=O)[C@H](C)NC(=O)[C@H](CCC(=O)O)NC1=O)C(=O)CCSC[C@H](NC(=O)[C@H](C)N)C(=O)N[C@@H](CO)C(=O)N[C@@H](Cc1ccccc1)C(=O)N1CCC[C@H]1C(=O)N[C@@H](CCCCN)C(=O)N2` [Peptide 24], for which, at EcPBP3 [1], the Ki was 25.5 nM. The Kd on EcPBP3 [2] came to 24.4 nM.
